In publication PMC3476531, “Synergy of Peptide and Sugar in O-GlcNAcase Substrate Recognition” (Chemistry & Biology, 2012):

Assays:
hOGA = target: T1, hOGA (Homo sapiens, UniProt O60502); test: hOGA glycopeptide hydrolysis, substrate competition assay with 4MU-GlcNAc reporter; type: biochemical; parameters: GST (N); made in house; host or cells: transiently transfected HEK293 cells; conditions: wild-type full-length hOGA; competition with 4MU-GlcNAc reporter substrate; 37°C, 50 mM citrate-phosphate buffer pH 7.4, 0.1 mg/ml BSA; triplicate; ± error of curve-fit; read-out: Michaelis constant (KM) of glycopeptide substrate for hOGA
T1 sequence (O60502 1-916): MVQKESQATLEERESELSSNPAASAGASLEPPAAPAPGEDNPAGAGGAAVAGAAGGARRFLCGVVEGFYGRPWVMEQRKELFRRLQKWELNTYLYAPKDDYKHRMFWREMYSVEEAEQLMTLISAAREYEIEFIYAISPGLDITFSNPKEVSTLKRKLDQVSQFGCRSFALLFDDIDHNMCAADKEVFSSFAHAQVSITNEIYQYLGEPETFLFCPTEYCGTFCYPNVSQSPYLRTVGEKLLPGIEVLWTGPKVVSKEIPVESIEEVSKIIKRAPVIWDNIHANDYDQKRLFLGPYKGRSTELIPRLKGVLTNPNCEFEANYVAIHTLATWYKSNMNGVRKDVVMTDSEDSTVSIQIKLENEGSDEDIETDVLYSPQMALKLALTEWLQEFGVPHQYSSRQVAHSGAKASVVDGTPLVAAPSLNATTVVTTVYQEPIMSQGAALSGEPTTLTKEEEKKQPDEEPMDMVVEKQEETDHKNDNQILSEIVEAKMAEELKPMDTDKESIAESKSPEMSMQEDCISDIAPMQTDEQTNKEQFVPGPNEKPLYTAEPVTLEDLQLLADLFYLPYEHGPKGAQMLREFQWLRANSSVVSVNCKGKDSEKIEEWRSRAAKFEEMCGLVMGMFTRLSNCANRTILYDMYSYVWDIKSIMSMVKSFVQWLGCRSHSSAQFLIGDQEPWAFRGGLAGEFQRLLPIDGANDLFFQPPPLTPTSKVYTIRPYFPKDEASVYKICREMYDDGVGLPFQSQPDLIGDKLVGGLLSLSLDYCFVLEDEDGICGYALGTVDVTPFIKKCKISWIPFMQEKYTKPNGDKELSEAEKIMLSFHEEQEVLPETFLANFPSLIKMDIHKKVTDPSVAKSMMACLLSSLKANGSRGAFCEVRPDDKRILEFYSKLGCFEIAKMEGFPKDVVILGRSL
Protocol: Protein was expressed in transiently transfected HEK293 cells and purified via glutathione sepharose affinity chromatography.
hOGA and CpOGA glycopeptide hydrolysis assays were carried out as described previously ([Dorfmueller et al., 2006; Schimpl et al., 2010]) using multisubstrate enzyme kinetics with the fluorigenic pseudosubstrate 4MU-GlcNAc as the reporter substrate. […] Reactions were performed at 37°C in 50 mM citrate-phosphate buffer (pH 7.4) and 0.1 mg/ml BSA. Experiments were performed in triplicate, and data were analyzed and plotted with GraphPad PRISM.

[1] = target: T2, human O-GlcNAcase (hOGA), wild-type (human) (UniProt O60502)
T2 sequence: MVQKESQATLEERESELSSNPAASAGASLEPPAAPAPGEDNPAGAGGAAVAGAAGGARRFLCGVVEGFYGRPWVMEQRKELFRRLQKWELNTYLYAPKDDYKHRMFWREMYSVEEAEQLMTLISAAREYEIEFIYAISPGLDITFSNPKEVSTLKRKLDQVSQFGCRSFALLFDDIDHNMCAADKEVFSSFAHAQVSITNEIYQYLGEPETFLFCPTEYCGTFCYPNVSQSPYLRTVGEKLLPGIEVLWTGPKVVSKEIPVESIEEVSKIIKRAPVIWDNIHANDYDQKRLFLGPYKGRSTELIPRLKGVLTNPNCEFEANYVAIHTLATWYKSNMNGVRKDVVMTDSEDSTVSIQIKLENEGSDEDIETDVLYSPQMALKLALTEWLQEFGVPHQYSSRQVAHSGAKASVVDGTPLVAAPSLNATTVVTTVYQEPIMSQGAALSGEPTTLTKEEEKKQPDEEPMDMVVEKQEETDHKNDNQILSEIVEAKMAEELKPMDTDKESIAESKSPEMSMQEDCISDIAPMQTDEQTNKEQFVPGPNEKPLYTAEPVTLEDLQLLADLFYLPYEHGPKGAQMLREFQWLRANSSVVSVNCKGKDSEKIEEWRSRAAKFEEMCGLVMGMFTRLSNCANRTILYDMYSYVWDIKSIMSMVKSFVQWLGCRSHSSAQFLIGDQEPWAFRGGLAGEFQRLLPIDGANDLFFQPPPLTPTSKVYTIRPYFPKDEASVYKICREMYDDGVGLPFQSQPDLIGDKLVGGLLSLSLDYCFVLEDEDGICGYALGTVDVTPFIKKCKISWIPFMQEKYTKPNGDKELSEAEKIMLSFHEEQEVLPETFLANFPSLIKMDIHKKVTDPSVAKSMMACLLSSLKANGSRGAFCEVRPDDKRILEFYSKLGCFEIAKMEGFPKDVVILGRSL

Km (hOGA) [µM]	KM (hOGA) of the glycopeptide substrate (substrate competition assay with 4MU-GlcNAc as reporter substrate) [1] [µM]	Substance
3700	–	QLVVS(O-GlcNAc)VPPPG [altered p53 glycopeptide with intramolecular hydrogen bond disrupted]
1800	–	QLVVS(O-GlcNAc)TPPPG [altered p53 glycopeptide with intramolecular hydrogen bond disrupted]
810 ± 140	–	VPHS(O-GlcNAc)SAQ
–	21	p53 peptide (Ser149) QLVDS(O-GlcNAc)TPPPG, original sequence of Table 2
